Assay in all cases: pIC50, kinobeads binding competition
One test addresses JAK1 (UniProt P23458). Put shortly:
(§1)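 Fold changes relative to vehicle, from biological duplicates, were fitted with logistic dose-response models in the R drc package to give pIC50. These fold changes came from TMT10 LC-MS/MS quantification of digested Kinobeads-bound proteins. Compound was applied at nine concentrations (top 30 μM) either to live Jurkat cells in 1:4 steps for 60 min at 37 °C before lysis, or to Jurkat lysate or a 1:1:1:1 HEK293/K-562/HepG2/placenta lysate mix in 1:5 steps for 60 min at 4 °C.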

In the next test the target is EPHA2 (UniProt P29317). Conditions: cell material: Lysate mix. In outline: as §1
The target in a further test is UniProt P19784. In outline: as §1
Another test has as its target MAPK14 (UniProt Q16539). Put shortly:
as §1

The next test has as its target UniProt Q00536. In outline:
as §1

The target in another test is PDIK1L (UniProt Q8N165). In outline: as §1
In the next test the target is Hck (UniProt P08631). The settings on record: cell material: Lysate mix. Put shortly:
as §1

The target of a further test is T1, UniProt O43318.
T1 sequence (whole entry): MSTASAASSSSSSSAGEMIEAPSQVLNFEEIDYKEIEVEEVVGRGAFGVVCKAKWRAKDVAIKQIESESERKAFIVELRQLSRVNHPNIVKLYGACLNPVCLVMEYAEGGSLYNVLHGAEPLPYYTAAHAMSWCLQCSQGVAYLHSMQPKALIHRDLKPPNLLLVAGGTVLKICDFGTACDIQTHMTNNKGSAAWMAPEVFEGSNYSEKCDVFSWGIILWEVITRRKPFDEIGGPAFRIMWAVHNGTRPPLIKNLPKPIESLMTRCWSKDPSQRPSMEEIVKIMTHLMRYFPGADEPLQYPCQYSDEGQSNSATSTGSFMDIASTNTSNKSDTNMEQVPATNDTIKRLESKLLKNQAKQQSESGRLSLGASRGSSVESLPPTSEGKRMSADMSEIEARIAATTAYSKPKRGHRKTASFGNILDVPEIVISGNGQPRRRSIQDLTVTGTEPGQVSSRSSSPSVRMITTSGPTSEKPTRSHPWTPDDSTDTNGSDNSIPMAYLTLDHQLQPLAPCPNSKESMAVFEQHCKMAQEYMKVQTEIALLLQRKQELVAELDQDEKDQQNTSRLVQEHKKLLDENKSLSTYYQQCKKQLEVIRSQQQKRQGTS
In outline:
as §1

The target of the next test is T2, IRAK4 (UniProt Q9NWZ3).
T2 sequence (whole entry): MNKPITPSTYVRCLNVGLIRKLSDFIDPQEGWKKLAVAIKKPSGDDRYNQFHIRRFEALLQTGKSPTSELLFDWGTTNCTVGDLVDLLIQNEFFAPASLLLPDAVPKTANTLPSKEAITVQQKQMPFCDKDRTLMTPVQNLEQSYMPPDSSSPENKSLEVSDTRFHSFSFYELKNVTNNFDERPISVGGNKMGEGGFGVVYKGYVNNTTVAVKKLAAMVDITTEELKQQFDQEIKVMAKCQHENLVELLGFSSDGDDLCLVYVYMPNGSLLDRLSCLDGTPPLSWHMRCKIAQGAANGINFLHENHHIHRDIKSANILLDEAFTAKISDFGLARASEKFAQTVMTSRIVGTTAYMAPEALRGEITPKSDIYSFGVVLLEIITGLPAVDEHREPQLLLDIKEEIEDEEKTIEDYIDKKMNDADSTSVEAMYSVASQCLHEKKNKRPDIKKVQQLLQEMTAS
In outline:
as §1

The target in a further test is PAK4 (UniProt O96013). In outline:
as §1

Another test addresses UniProt P04629. Conditions: cell material: Lysate mix. Put shortly:
as §1

The target of another test is T3, UniProt P45985.
T3 sequence (whole entry): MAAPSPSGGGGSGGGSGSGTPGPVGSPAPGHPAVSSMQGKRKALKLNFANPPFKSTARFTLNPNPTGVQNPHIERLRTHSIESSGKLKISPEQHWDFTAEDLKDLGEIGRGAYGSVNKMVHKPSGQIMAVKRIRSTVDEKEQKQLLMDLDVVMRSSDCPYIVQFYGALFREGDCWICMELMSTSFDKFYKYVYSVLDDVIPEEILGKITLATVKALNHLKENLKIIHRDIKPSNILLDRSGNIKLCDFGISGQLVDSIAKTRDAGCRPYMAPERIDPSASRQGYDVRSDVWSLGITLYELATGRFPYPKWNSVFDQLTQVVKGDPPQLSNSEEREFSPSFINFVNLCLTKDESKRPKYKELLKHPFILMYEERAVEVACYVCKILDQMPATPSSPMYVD
In outline: as §1

In the next test the target is UniProt Q9Y5S2. Conditions: cell material: Lysate mix. In outline:
as §1

As a reminder, the pIC50 is the IC50 on a negative log10 scale, so that one unit is a factor of ten. Low values mean a high IC50, high ones a low IC50. As to `O=C(NCCNC(=O)c1cc(Nc2cc(C3CC3)[nH]n2)nc(N2CCN(Cc3ccc(S(=O)(=O)F)cc3)CC2)n1)OC1CC/C=C/CCC1` (stereo not drawn), the pIC50 was below 4.52 on JAK1 (cell material: Jurkat cells); below 4.52 on JAK1 (cell material: Jurkat lysate); below 4.52 on JAK1 (cell material: Lysate mix); below 4.52 on EPHA2; 4.7 on UniProt P19784 (cell material: Jurkat cells); below 4.52 at UniProt P19784 (cell material: Jurkat lysate). In addition, the pIC50 was below 4.52 at UniProt P19784 (cell material: Lysate mix); below 4.52 on MAPK14 (cell material: Jurkat cells); below 4.52 on MAPK14 (cell material: Jurkat lysate); below 4.52 on MAPK14 (cell material: Lysate mix); 5.85 at UniProt Q00536 (cell material: Jurkat cells); below 4.52 at UniProt Q00536 (cell material: Jurkat lysate). Also, the pIC50 is below 4.52 on UniProt Q00536 (cell material: Lysate mix); 5.43 at PDIK1L (cell material: Jurkat cells); below 4.52 at PDIK1L (cell material: Jurkat lysate); below 4.52 on PDIK1L (cell material: Lysate mix); below 4.52 on Hck; 5.65 on UniProt O43318 (cell material: Jurkat cells). Further, the pIC50 on UniProt O43318 (cell material: Jurkat lysate) is below 4.52; on UniProt O43318 (cell material: Lysate mix), below 4.52; on IRAK4 (cell material: Jurkat cells), 5.24; at IRAK4 (cell material: Jurkat lysate), below 4.52; at IRAK4 (cell material: Lysate mix) it was below 4.52; at PAK4 (cell material: Jurkat cells), 6.17. The pIC50 on PAK4 (cell material: Jurkat lysate), on PAK4 (cell material: Lysate mix), at UniProt P04629, on UniProt P45985 (cell material: Jurkat lysate), at UniProt P45985 (cell material: Lysate mix) and on UniProt Q9Y5S2 was below 4.52 in each case.
As to `Cc1cc(Nc2cc(C(=O)NCCNC(=O)OC3CC/C=C/CCC3)nc(N3CCN(Cc4ccc(S(=O)(=O)F)cc4)CC3)n2)n[nH]1` (stereo not drawn), the pIC50 at JAK1 (cell material: Lysate mix), at EPHA2, on UniProt P19784 (cell material: Lysate mix), at MAPK14 (cell material: Lysate mix), at UniProt Q00536 (cell material: Lysate mix) and at PDIK1L (cell material: Lysate mix) was below 4.52 in each case. The pIC50 at Hck, on UniProt O43318 (cell material: Lysate mix), at IRAK4 (cell material: Lysate mix), on PAK4 (cell material: Lysate mix), on UniProt P04629 and on UniProt P45985 (cell material: Lysate mix) was below 4.52 throughout. On UniProt Q9Y5S2, this compound gave a pIC50 below 4.52.
Take `CCNC(=O)c1cc(Nc2cc(C)[nH]n2)nc(N2CCN(Cc3ccc(S(=O)(=O)F)cc3)CC2)n1`: the pIC50 was below 4.52 at JAK1 (cell material: Lysate mix); below 4.52 on EPHA2; 5.1 on UniProt P19784 (cell material: Lysate mix); below 4.52 on MAPK14 (cell material: Lysate mix); 4.76 at UniProt Q00536 (cell material: Lysate mix); 5.5 at PDIK1L (cell material: Lysate mix). Also, the pIC50 at Hck is 5.62; on UniProt O43318 (cell material: Lysate mix), below 4.52; at IRAK4 (cell material: Lysate mix), below 4.52; at PAK4 (cell material: Lysate mix), 4.7; on UniProt P04629, below 4.52; at UniProt P45985 (cell material: Lysate mix), below 4.52. In addition, on UniProt Q9Y5S2, the pIC50 was below 4.52.
Turning to `C#CCNC(=O)c1cc(Nc2cc(C3CC3)[nH]n2)nc(N2CCN(Cc3ccc(S(=O)(=O)F)cc3)CC2)n1`, the pIC50 on JAK1 (cell material: Jurkat cells) is 5.18; on JAK1 (cell material: Jurkat lysate), below 4.52; on JAK1 (cell material: Lysate mix) it was below 4.52; at EPHA2, below 4.52; at UniProt P19784 (cell material: Jurkat cells) it was 5.66; on UniProt P19784 (cell material: Jurkat lysate) it was below 4.52. Also, the pIC50 is 4.96 at UniProt P19784 (cell material: Lysate mix); below 4.52 at MAPK14 (cell material: Jurkat cells); below 4.52 at MAPK14 (cell material: Jurkat lysate); below 4.52 on MAPK14 (cell material: Lysate mix); 6.35 on UniProt Q00536 (cell material: Jurkat cells); 5.01 on UniProt Q00536 (cell material: Jurkat lysate). For the same compound, the pIC50 on UniProt Q00536 (cell material: Lysate mix) amounted to 5.89; on PDIK1L (cell material: Jurkat cells) it was 6.16; at PDIK1L (cell material: Jurkat lysate) it was 5.61; at PDIK1L (cell material: Lysate mix), 5.64; on Hck, 5.86; at UniProt O43318 (cell material: Jurkat cells), 5.87. In addition, the pIC50 at UniProt O43318 (cell material: Jurkat lysate) is below 4.52; on UniProt O43318 (cell material: Lysate mix) it was below 4.52; on IRAK4 (cell material: Jurkat cells), 6.03; on IRAK4 (cell material: Jurkat lysate) it was 4.62; at IRAK4 (cell material: Lysate mix), 5.06; at PAK4 (cell material: Jurkat cells), 5.78. Also, the pIC50 at PAK4 (cell material: Jurkat lysate) is 5.19; at PAK4 (cell material: Lysate mix), 5.58; on UniProt P04629, 5.39; on UniProt P45985 (cell material: Jurkat cells), 5.86; at UniProt P45985 (cell material: Jurkat lysate), below 4.52; on UniProt P45985 (cell material: Lysate mix), 4.82. Also, the pIC50 on UniProt Q9Y5S2 is below 4.52.
Consider `C#CCNC(=O)c1cc(Nc2cc(C)[nH]n2)nc(N2CCN(Cc3ccc(S(=O)(=O)F)cc3)CC2)n1`, for which the pIC50 was below 4.52 on JAK1 (cell material: Lysate mix); below 4.52 at EPHA2; 4.78 at UniProt P19784 (cell material: Lysate mix); below 4.52 on MAPK14 (cell material: Lysate mix); below 4.52 on UniProt Q00536 (cell material: Lysate mix); 5.14 at PDIK1L (cell material: Lysate mix). Moreover, the pIC50 is 5.4 on Hck; below 4.52 on UniProt O43318 (cell material: Lysate mix); below 4.52 on IRAK4 (cell material: Lysate mix); 4.8 on PAK4 (cell material: Lysate mix); below 4.52 at UniProt P04629; below 4.52 at UniProt P45985 (cell material: Lysate mix). This compound also showed a pIC50 on UniProt Q9Y5S2 below 4.52.
Regarding `CCNC(=O)c1cc(Nc2cc(C3CC3)[nH]n2)nc(N2CCN(Cc3ccc(S(=O)(=O)F)cc3)CC2)n1`, the pIC50 on JAK1 (cell material: Lysate mix) is below 4.52; at EPHA2 it was below 4.52; at UniProt P19784 (cell material: Lysate mix) it was 5.47; on MAPK14 (cell material: Lysate mix), below 4.52; at UniProt Q00536 (cell material: Lysate mix) it was 5.76; at PDIK1L (cell material: Lysate mix), 5.89. Further, the pIC50 at Hck was 5.8; at UniProt O43318 (cell material: Lysate mix) it was below 4.52; on IRAK4 (cell material: Lysate mix), 5.19; at PAK4 (cell material: Lysate mix), 5.27; on UniProt P04629 it was 5.58; at UniProt P45985 (cell material: Lysate mix) it was 4.88. The same compound gave a negative logarithm of the IC50 (pIC50) on UniProt Q9Y5S2 below 4.52.

Values taken from the supplement of paper PMC12076712.
